Literature values, collected in patent US6475530B1, “Methods and compositions for producing weight loss” (priority 2000, dated 2002).
Each block holds one compound with its values, some of them ahead of it.

Key:
growth hormone = conditions: healthy postmenopausal women; 9 grams per day
[1] = mice; substance by itself
[2] = single dose of 300 mg. per day; healthy young adults
cyclooxygenase = conditions: single large dose

SMILES: N=C(N)NCCC[C@H](N)C(=O)O [L-arginine]
- increase in growth hormone (growth hormone): 72%

- time to gastric erosion [2]: 5 to 7 days
- time for prostaglandin levels to return to baseline (cyclooxygenase): ≤ 6 h
SMILES: CC(=O)Oc1ccccc1C(=O)O [aspirin, acetylsalicylic acid]
- weight loss [1]: no weight loss

SMILES: O=C(O)c1cccnc1 [nicotinic acid]
- effect on free fatty acids (free fatty acids; given in the daytime): reduces free fatty acids temporarily, but then there is a rebound effect
- duration of reduction in free fatty acids (free fatty acids; given nocturnally, constant infusion from 8:00 PM to 6 AM, without rebound effect): 24 h
